This note sets out measurements from US6548553B2, “Styryl sulfone anticancer agents” (Temple University-of the Commonwealth System of Higher …, priority 1997, dated 2003).

Common to all, as to type: cell-based
Series [1] relates to 361 breast tumor cell line. The series is described as follows: Trypan blue exclusion viability assay, breast tumor cell line. The settings on record: 2.5 and 5.0 μM, 48 hours. How it is done:
The effect of FR-20 on the growth of normal and tumor cells of breast and prostate was examine utilizing nine cell lines: NIH/3T3 and HFL (normal fibroblast cell lines); MCF-7 and 361 ([…] breast tumor cell lines); BT-20, 435 and SKBR-3 ([…] breast tumor cell lines); LnCaP (androgen sensitive prostate tumor cell line); PC-3 and DU-145 (androgen insensitive prostate tumor cell line).
The cells were grown as in Example 22, A. FR-20 was dissolved in DMSO and added to the cells at 2.5 μM and 5.0 μM concentration. To control cells, DMSO was added equivalent to the volume of solvent (DMSO) present at the highest concentration of the compound. The activity of the compound was evaluated after 48 hours by Trypan blue exclusion. […] Nearly 50% of SKBR-3 and BT-20 cells were dead at 2.5 μM and 75% at 5.0 μM concentration of the compound. […] FRI-20 had profound effect on the viability of androgen-dependent LnCaP prostate tumor cell line when compared to androgen-independent DU-145 and PC-3 prostate cell lines. At […] FRI-20, 80% of LnCaP, 40% of PC-3 and 20% of DU-145 cells were killed. At […] FRI-20, 72% of LnCaP, 47% of PC-3 and 40% of DU-145 were killed (FIG. 3B).

For a further series, the system named is SK-ov-3. Description: GI50 growth inhibition, trypan blue cell count. The note with it: Homo sapiens, ovarian, 96 hours after addition. How it is done:
(§1) The human carcinoma cell lines listed in Table 5 below were purchased from ATCC and grown in an appropriate growth medium containing 10% fetal bovine serum (FBS) and antibiotics. The cells were plated at a cell density of 1.0×10^5 cells per […] in 6-well dishes. The cells were treated with various concentrations of (E)-fluorostyryl-4-bromobenzylsulfone 24 hours after plating in a total volume of 1 ml of medium using dimethylsulfoxide (DMSO) as a solvent for the compound. Control cells were treated with DMSO alone. The total number of viable cells was determined 96 hours after the addition of the compound by counting the cells in each well using a hemacytometer after trypan blue staining (viable cells exclude the stain). The counts were done in duplicate and the average was graphed in FIG. 8 as a percentage of the non-treated control group.
(§2) Applying the same protocol as in Example 34, the GI50 for compound FRI-20 treatment of the cell lines in Table 6 was determined: […]

The subject of the next series is Raji. Description: GI50 growth inhibition, trypan blue cell count. The settings on record: Homo sapiens, Burkets lymphoma, 96 hours after addition. How it is done:
as §1, §2

Another series relates to A431. The series is described as follows: GI50 growth inhibition, trypan blue cell count. The note with it: Homo sapiens, A-431; epidermoid; 96 hours after addition. How it is done:
as §1, §2

The subject of another series is Daudi. The series is described as follows: GI50 growth inhibition, trypan blue cell count. The note with it: Homo sapiens, Burkets lymphoma, 96 hours after addition. How it is done:
as §1, §2

Another series relates to SK-MEL-3. The series is described as follows: GI50 growth inhibition, trypan blue cell count. The settings on record: Homo sapiens, SK-MEL3; melanoma; 96 hours after addition. How it is done:
as §1, §2

A further series concerns H1299. The series is described as follows: GI50 growth inhibition, trypan blue cell count. The settings on record: Homo sapiens, NCI-H1299; lung, non-small cell; 96 hours after addition. How it is done: as §1, §2
The next series concerns OvCar-3. The series is described as follows: GI50 growth inhibition, trypan blue cell count. The note with it: Homo sapiens, ovarian, 96 hours after addition. How it is done: as §1, §2
The test system of a further series is H209. Description: GI50 growth inhibition, trypan blue cell count. The note with it: Homo sapiens, NCI-H209; lung, small cell; 96 hours after addition. How it is done: as §1, §2
For the next series, the system named is Hs 456.BT. Description: GI50 growth inhibition, trypan blue cell count. The note with it: Homo sapiens; benign skin lesion; 96 hours after addition. How it is done: as §1, §2
A further series has as its system Hs 416.T. Description: GI50 growth inhibition, trypan blue cell count. The settings on record: Homo sapiens; squamous papilloma; 96 hours after addition. How it is done: as §1, §2
Another series has as its system H80. The series is described as follows: GI50 growth inhibition, trypan blue cell count. The settings on record: Homo sapiens; glioblastoma; 96 hours after addition. How it is done:
as §1, §2

The subject of a further series is CAKI-2. Description: GI50 growth inhibition, trypan blue cell count. The settings on record: Homo sapiens, renal, 96 hours after addition. How it is done:
as §1, §2

The subject of another series is Detroit 525. The series is described as follows: GI50 growth inhibition, trypan blue cell count. The note with it: Homo sapiens; Turner Syndrome skin fibroblast; 96 hours after addition. How it is done:
as §1, §2

In the next series the test system is BxPC-3. Description: GI50 growth inhibition, trypan blue cell count. The settings on record: Homo sapiens, pancreatic, 96 hours after addition. How it is done:
as §1, §2

The next series deals with SW1088. The series is described as follows: GI50 growth inhibition, trypan blue cell count. The settings on record: Homo sapiens, astrocytoma, 96 hours after addition. How it is done:
as §1, §2

Series [2] concerns LnCaP, BT-20 and MCF-7 cells. Description: Trypan blue exclusion viability/proliferation assay (dose and time course). How it is done:
The effect of the styryl sulfones on the growth of normal and tumor cells of breast and prostate was examine utilizing four cell lines, NIH3T3, MCF-7, BT-20 and LnCap. NIH/3T3 cells represent normal fibroblasts while LnCap is an androgen-dependent prostate tumor cell line. MCF-7 is an estrogen-responsive breast tumor cell line, while BT-20 is an estrogen-unresponsive breast tumor cell line. MCF-7 and BT-20 were grown in Dulbecco's modified Eagle's medium (DMEM) containing 10% fetal bovine serum supplemented with penicillin and streptomycin. LnCaP were cultured in RPMI with 10% fetal bovine serum containing penicillin and streptomycin. NIH3T3 cells were grown in DMEM containing 10% calf serum supplemented with penicillin and streptomycin. All cell cultures were maintained at 37° C. in a humidified atmosphere of 5% CO2.
The compounds identified in Tables 2, 3 and 4 inhibited cell growth and induced cell death, to varying degrees. The tables list the percent viable LnCap and MCF-7 cells treated with 5.0 μM compound.
NIH3T3, MCF-7, BT-20 and LnCaP cells were treated with FRI-20 dissolved in DMSO to concentrations of 250 nM, 500 nM, 1 μM, 2.5 μM and 5 μM and examined for their proliferation and viability after 48 hours (FIG. 2A). The percentage of living cells was determined by Trypan blue exclusion. The control cells were treated with DMSO to determine the effect of solvent on cells. […] Under these conditions, only 2-3% of NIH3T3 cells were non-viable at both the concentrations. […] After 48 hours incubation, 60-75% of the LnCaP, BT-20 and MCF-7 cells were dead at […] FRI-20 concentration, whereas more than 90% of NIH3T3 cells were viable (FIG. 2A).
NIH/3T3, MCF-7, BT-20 and LnCap were treated with FRI-20 at 2.5 μM and the number of viable cells was determined at 12, 24, 48 and 72 hours by Trypan blue exclusion.

Each structure is given as a SMILES string.

By GI50 is commonly meant the concentration at which growth is held to half of that of the control. As for `O=S(=O)(/C=C/c1ccc(F)cc1)Cc1ccc(Cl)cc1` [Example 11, E-4-fluorostyryl 4-chlorobenzyl Sulfone], the viable cells in [1] is listed as 50-75%. The GI50 in the series with SK-ov-3 worked out at 1500 nM; in the series on Raji, 2000 nM; in the series on A431, 800 nM; in the series on Daudi, 2000 nM; with SK-MEL-3, 2000 nM; with H1299, 2000 nM. The GI50 in the series with OvCar-3 turned out to be 1500 nM; in the series on H209, 1000 nM; with Hs 456.BT it was 3000 nM; with Hs 416.T it was 4000 nM; in the series with H80, 1500 nM; in the series with CAKI-2 it was 1000 nM. The GI50 was determined as 3000 nM with Detroit 525, 500 nM with BxPC-3 and 2000 nM in the series on SW1088. For the same compound, the cell death result was “about 10%” in [2] (250 nM, 48 hours); 25-30% in series [2] (500 nM, 48 hours); around 90% in [2] (5 μM, 48 hours). Moreover, the inhibition at 0.25 µM in series [2] (250 nM, 48 hours, read-out: inhibition in cell division compared to untreated cells) fell in the range of 15 to 20%. The inhibition at 0.5 µM in [2] (500 nM, 48 hours, read-out: inhibition in cell proliferation) lay in the range of 30 to 50%. In addition, the “cell growth inhibition with loss of cell viability” value in series [2] (1 μM, 48 hours) was “greatly inhibited”. The dead cells is reported as 60-75% in series [2] (2.5 µM, 48 hours incubation) and “more than 95%” in [2] (2.5 μM, 72 hours of treatment).
